Read-outs that look alike come from different tables or passages of the source.
Target: T1, CYP4A (Homo sapiens, UniProt Q02928)
T1 construct: host or cells: bactosome, i.e. bacterial membrane preparation (own knowledge of the term)
T1 sequence (Q02928 5-519): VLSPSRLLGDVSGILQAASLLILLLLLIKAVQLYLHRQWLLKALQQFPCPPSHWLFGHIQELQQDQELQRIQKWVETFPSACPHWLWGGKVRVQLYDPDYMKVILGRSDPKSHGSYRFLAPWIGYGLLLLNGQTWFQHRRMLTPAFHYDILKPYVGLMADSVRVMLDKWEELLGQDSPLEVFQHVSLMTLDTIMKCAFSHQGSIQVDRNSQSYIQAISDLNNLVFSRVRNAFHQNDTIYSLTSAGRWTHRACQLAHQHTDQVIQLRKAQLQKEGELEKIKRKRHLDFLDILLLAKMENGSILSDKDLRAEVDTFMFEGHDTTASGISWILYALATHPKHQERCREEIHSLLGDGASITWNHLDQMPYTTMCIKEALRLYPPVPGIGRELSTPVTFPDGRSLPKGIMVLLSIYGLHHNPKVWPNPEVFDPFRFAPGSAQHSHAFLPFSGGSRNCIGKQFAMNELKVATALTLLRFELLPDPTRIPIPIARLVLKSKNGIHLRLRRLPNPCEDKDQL
Assay: CYP4A enzyme assay (Luciferin-ME luminescence, CYP4A bactosome)
Format: biochemical
Conditions: compound concentration 5 μM
Outline: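 CYP4A bactosome preincubated 15 min at room temperature with compound (5 μM) in 100 mM KPO4, 0.1% BSA, 1 mM DTT. Luciferin-ME (5 mM) plus NADPH regeneration system added, 30 min at room temperature, then detection reagent for 15 min. Inhibition derived from luminescence versus controls.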

[1] = 75% or more, read-out: % Inhibition 75% or more
[2] = '50%-75%', read-out: % Inhibition 50%-75%
[3] = 25%-50%, read-out: % Inhibition 25%-50%

inhibition at 5 µM [1] [%]	Structure (SMILES)	other results
≥ 75	O=C(C1CCCN(S(=O)(=O)c2ccc(F)cc2)C1)N1CCN(c2ccnc3ccccc23)CC1 (stereo not drawn) [Formula 75, (1-(4-fluorophenylsulfonyl)piperidin-3-yl) (4-(quinolin-4-yl)piperazin-1-yl) methanone]	
≥ 75	CN(C)c1ccc(S(=O)(=O)N2CCC[C@@H](C(=O)N3CCN(c4ccnc5ccccc45)CC3)C2)cc1 [Formula 79, (R)-(1-(4-(dimethylamino)phenylsulfonyl)piperidin-3-yl) (4-(quinolin-4-yl)piperazin-1-yl)methanone]	
	CN(C)C(=O)c1ccc(S(=O)(=O)N2CCCC(C(=O)N3CCN(c4ccnc5cc(Cl)ccc45)CC3)C2)cc1 (stereo not drawn) [Formula 99, 4-(3-(1-(7-chloroquinolin-4-yl)piperazine-4-carbonyl)piperidin-1-ylsulfonyl)-N,N-dimethylbenzamide]	inhibition at 5 µM [2]: 50 to 75%
≥ 75	CCN(CC)c1ccc(S(=O)(=O)N2CCCC(C(=O)N3CCN(c4ccnc5cc(F)ccc45)CC3)C2)cc1 (stereo not drawn) [Formula 52, (1-(4-(diethylamino)phenylsulfonyl)piperidin-3-yl) (4-(7-fluoroquinolin-4-yl)piperazin-1-yl) methanone]	
	O=C(C1CCCN(S(=O)(=O)c2ccc(O)cc2)C1)N1CCN(c2cc(C(F)(F)F)nc3ccccc23)CC1 (stereo not drawn) [Formula 68, (1-(4-hydroxyphenylsulfonyl)piperidin-3-yl) (4-(2-(trifluoromethyl)quinolin-4-yl)piperazin-1-yl) methanone]	inhibition at 5 µM [3]: 25 to 50%
≥ 75	COc1ccc(S(=O)(=O)N2CCCC(C(=O)N3CCN(c4ccnc5cc(F)ccc45)CC3)C2)cc1 (stereo not drawn) [Formula 53, (4-(7-fluoroquinolin-4-yl)piperazin-1-yl) (1-(4-methoxyphenylsulfonyl)piperidin-3-yl) methanone]	
≥ 75	CN(C)c1cccc(S(=O)(=O)N2CCC[C@@H](C(=O)N3CCN(c4ccnc5cc(F)ccc45)CC3)C2)c1 [Formula 61, (R)-(1-(3-(dimethylamino)phenylsulfonyl)piperidin-3-yl) (4-(7-fluoroquinolin-4-yl)piperazin-1-yl) methanone]	
≥ 75	O=C(C1CCCN(S(=O)(=O)c2cccc(-c3ccncc3)c2)C1)N1CCN(c2ccnc3cc(F)ccc23)CC1 (stereo not drawn) [Formula 109, (4-(7-fluoroquinolin-4-yl)piperazin-1-yl) (1-(3-(pyridin-4-yl)phenylsulfonyl)piperidin-3-yl) methanone]	
≥ 75	O=C([C@@H]1CCCN(S(=O)(=O)c2cccc([N+](=O)[O-])c2)C1)N1CCN(c2ccnc3cc(F)ccc23)CC1 [Formula 60, (R)-(4-(7-fluoroquinolin-4-yl)piperazin-1-yl) (1-(3-nitrophenylsulfonyl)piperidin-3-yl) methanone]	
	O=C(C1CCCN(S(=O)(=O)c2cccc(O)c2)C1)N1CCN(c2ccnc3cc(Cl)ccc23)CC1 (stereo not drawn) [Formula 92, (4-(7-chloroquinolin-4-yl)piperazin-1-yl) (1-(3-hydroxyphenylsulfonyl)piperidin-3-yl) methanone]	inhibition at 5 µM [2]: 50 to 75%
≥ 75	CC(=O)Nc1ccc(S(=O)(=O)N2CCC[C@@H](C(=O)N3CCN(c4cc(C)nc5ccccc45)CC3)C2)cc1 [Formula 16, (R)—N-(4-((3-(4-(2-methylquinolin-4-yl)piperazine-1-carbonyl)piperidin-1-yl)sulfonyl)phenyl) acetamide]	
≥ 75	O=C([C@@H]1CCCN(S(=O)(=O)c2ccc(-c3ccncc3)cc2)C1)N1CCN(c2ccnc3cc(F)ccc23)CC1 [Formula 107, (R)-(4-(7-fluoroquinolin-4-yl)piperazin-1-yl) (1-(4-(pyridin-4-yl)phenylsulfonyl)piperidin-3-yl) methanone]	
≥ 75	N#Cc1ccc(S(=O)(=O)N2CCCC(C(=O)N3CCN(c4ccnc5cc(Cl)ccc45)CC3)C2)cc1 (stereo not drawn) [Formula 10, 4-(3-(1-(7-chloroquinolin-4-yl)piperazine-4-carbonyl)piperidin-1-ylsulfonyl)benzonitrile]	
≥ 75	Cc1cc(N2CCN(C(=O)C3CCCN(S(=O)(=O)c4cccc([N+](=O)[O-])c4)C3)CC2)c2ccccc2n1 (stereo not drawn) [Formula 28, (4-(2-methylquinolin-4-yl)piperazin-1-yl) (1-(3-nitrophenylsulfonyl)piperidin-3-yl) methanone]	
	Cc1cc(N2CCN(C(=O)C3CCCN(S(=O)(=O)c4ccc(C(F)(F)F)cc4)C3)CC2)c2ccccc2n1 (stereo not drawn) [Formula 26, (4-(2-methylquinolin-4-yl)piperazin-1-yl) (1-(4-(trifluoromethyl)phenylsulfonyl)piperidin-3-yl) methanone]	inhibition at 5 µM [2]: 50 to 75%
≥ 75	O=C(C1CCCN(S(=O)(=O)c2ccc(-c3ccccc3)cc2)C1)N1CCN(c2ccnc3ccccc23)CC1 (stereo not drawn) [Formula 84, (4-(quinolin-4-yl)piperazin-1-yl) (1-(4-phenylbenzenesulfonyl)piperidin-3-yl) methanone]	
0	Cc1cc(N2CCN(C(=O)C3CCCN(S(=O)(=O)c4ccc(-c5cnc(C)nc5)cc4)C3)CC2)c2ccccc2n1 (stereo not drawn) [Formula 104, (1-((4-(2-methylpyrimidin-5-yl)phenyl)sulfonyl)piperidin-3-yl) (4-(2-methylquinolin-4-yl)piperazin-1-yl) methanone]	
≥ 75	CC(=O)Nc1ccc(S(=O)(=O)N2CCC[C@@H](C(=O)N3CCN(c4ccnc5cc(F)ccc45)CC3)C2)cc1 [Formula 46, (R)—N-(4-(3-(1-(7-fluoroquinolin-4-yl)piperazine-4-carbonyl)piperidin-1-ylsulfonyl)phenyl) acetamide]	
≥ 75	O=C(C1CCCN(S(=O)(=O)c2ccc(-c3ccccc3)cc2)C1)N1CCN(c2ccnc3cc(F)ccc23)CC1 (stereo not drawn) [Formula 55, (4-(7-fluoroquinolin-4-yl)piperazin-1-yl) (1-(4-phenylbenzenesulfonyl)piperidin-3-yl) methanone]	
≥ 75	O=C(C1CCCN(S(=O)(=O)c2ccc(O)cc2)C1)N1CCN(c2ccnc3cc(F)ccc23)CC1 (stereo not drawn) [Formula 43, (4-(7-fluoroquinolin-4-yl)piperazin-1-yl) (1-((4-hydroxyphenyl)sulfonyl)piperidin-3-yl) methanone]	
	O=C(C1CCCN(S(=O)(=O)c2cccc(F)c2)C1)N1CCN(c2ccnc3cc(Cl)ccc23)CC1 (stereo not drawn) [Formula 8, (4-(7-chloroquinolin-4-yl)piperazin-1-yl) (1-((3-fluorophenyl)sulfonyl)piperidin-3-yl) methanone]	inhibition at 5 µM [2]: 50 to 75%
≥ 75	O=C(C1CCCN(S(=O)(=O)c2ccc(-c3cccnc3)cc2)C1)N1CCN(c2ccnc3cc(F)ccc23)CC1 (stereo not drawn) [Formula 108, (4-(7-fluoroquinolin-4-yl)piperazin-1-yl) (1-(4-(pyridin-3-yl)phenylsulfonyl)piperidin-3-yl) methanone]	
	Cc1cc(N2CCN(C(=O)C3CCCN(S(=O)(=O)c4ccc(Cl)cc4)C3)CC2)c2ccccc2n1 (stereo not drawn) [Formula 25, (1-(4-chlorophenylsulfonyl)piperidin-3-yl) (4-(2-methylquinolin-4-yl)piperazin-1-yl) methanone]	inhibition at 5 µM [2]: 50 to 75%
≥ 75	CC(=O)Nc1cccc(S(=O)(=O)N2CCC[C@@H](C(=O)N3CCN(c4ccnc5cc(F)ccc45)CC3)C2)c1 [Formula 59, (R)—N-(3-(3-(1-(7-fluoroquinolin-4-yl)piperazine-4-carbonyl)piperidin-1-ylsulfonyl)phenyl) acetamide]	
≥ 75	Cc1cc(N2CCN(C(=O)C3CCCN(S(=O)(=O)c4ccc(-c5ccccc5)cc4)C3)CC2)c2ccccc2n1 (stereo not drawn) [Formula 38, (4-(2-methylquinolin-4-yl)piperazin-1-yl) (1-(4-phenylbenzenesulfonyl)piperidin-3-yl) methanone]	
	Nc1ccc(S(=O)(=O)N2CCCC(C(=O)N3CCN(c4ccnc5ccccc45)CC3)C2)cc1 (stereo not drawn) [Formula 97, (1-(4-aminophenylsulfonyl)piperidin-3-yl) (4-(quinolin-4-yl)piperazin-1-yl) methanone]	inhibition at 5 µM [2]: 0%
≥ 75	CC(=O)Nc1ccc(S(=O)(=O)N2CCC[C@H](C(=O)N3CCN(c4ccnc5cc(F)ccc45)CC3)C2)cc1 [Formula 47, (S)—N-(4-(3-(1-(7-fluoroquinolin-4-yl)piperazine-4-carbonyl)piperidin-1-ylsulfonyl)phenyl) acetamide]	
≥ 75	COc1cccc(S(=O)(=O)N2CCCC(C(=O)N3CCN(c4ccnc5cc(Cl)ccc45)CC3)C2)c1 (stereo not drawn) [Formula 14]	
≥ 75	O=C(C1CCCN(S(=O)(=O)c2ccc(-c3cncnc3)cc2)C1)N1CCN(c2ccnc3cc(F)ccc23)CC1 (stereo not drawn) [Formula 111, (4-(7-fluoroquinolin-4-yl)piperazin-1-yl) (1-(4-(pyrimidin-5-yl)phenylsulfonyl)piperidin-3-yl) methanone]	
	O=C(O)c1ccc(S(=O)(=O)N2CCCC(C(=O)N3CCN(c4ccnc5cc(Cl)ccc45)CC3)C2)cc1 (stereo not drawn) [Formula 98, 4-((3-(1-(7-chloroquinolin-4-yl)piperazine-1-carbonyl)piperidin-1-yl)sulfonyl)benzoic acid]	inhibition at 5 µM [3]: 25 to 50%

Reference: patent US12479821B2 (MBD CO., LTD., priority 2019, dated 2025)
